Measured values reported in PMC11009625, “Antibiotic class with potent in vivo activity targeting lipopolysaccharide synthesis in Gram-negative bacteria” (Proceedings of the National Academy of Sciences of the …, 2024).

What follows are compounds tested against T1, E. coli LpxH (Escherichia coli, UniProt P43341) (assay: MBP-AaLpxE-coupled LpxH activity assay (malachite green)). Conditions: read-out: E. coli LpxH enzyme inhibition IC50.
T1 construct: His6 (C); made in house; host or cells: E. coli BL21-AI (pET-26b(+), synthetic gene from GenScript)
T1 sequence (P43341 whole entry): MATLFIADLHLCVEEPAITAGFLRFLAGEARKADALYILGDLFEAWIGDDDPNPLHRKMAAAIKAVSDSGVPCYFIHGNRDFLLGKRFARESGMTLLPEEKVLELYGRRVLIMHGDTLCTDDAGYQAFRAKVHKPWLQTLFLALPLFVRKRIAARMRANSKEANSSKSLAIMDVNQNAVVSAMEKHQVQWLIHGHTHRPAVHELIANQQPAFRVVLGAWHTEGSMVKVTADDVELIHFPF
Assay type: biochemical
Experimental: E. coli-optimized EcLpxH and KpLpxH sequences, cloned into a pET-26b(+) vector (Novagene) using NdeI/XhoI restriction sites, were ordered from GenScript Biotech (the Netherlands), giving constructs with a His6-tag at the C-terminal end, and bearing kanamycin resistance. Competent E. coli BL21-AI cells (Invitrogen) were transformed and grown at 37 °C in Luria broth containing 50 μg/mL kanamycin to an OD600 of 0.5 to 1.0, then induced for 2 to 3 h by adding IPTG and L-arabinose to final concentrations of 0.5 mM and of 2 mg/mL, respectively. Harvested cells were lysed in a One-Shot cell disrupter (Constant Systems Ltd., UK) in 20 mM Tris-HCl pH 8.0, 300 mM NaCl, 20 mM imidazole, 4 M urea, 5% (v/v) glycerol, 0.01 mg/mL RNase A and 0.02 mg/mL DNase, plus cOmplete, EDTA-free protease inhibitor cocktail (Roche). Proteins were purified using Ni-nitrilotriacetic acid agarose (Qiagen), HiTrap Heparin HP affinity chromatography (Cytiva), and HiLoad 16/60 Superdex 200 chromatography (Amersham Biosciences). Final samples were concentrated to 15 mg/mL protein and stored in aliquots in 20 mM Tris-HCl (pH 8.0) containing 300 mM NaCl and 2 mM DTT at −80 °C. Assays were performed essentially as described by ref. [26]. Additional assay details are available in SI Appendix.
Cloning, expression and purification of LpxHs. E. coli-optimized EcLpxH and KpLpxH sequences, cloned into a pET-26b(+) vector (Novagene) using NdeI/XhoI restriction sites, were ordered from GenScript Biotech (the Netherlands), giving constructs with a His6-tag at the C-terminal end, and bearing kanamycin resistance. The correctness of the sequences was verified by DNA sequencing. Competent E. coli BL21-AI cells (Invitrogen) were transformed with the resulting plasmids for protein production.
Cultures of 8 L of Luria broth containing 50 μg/mL kanamycin were grown at 37 °C to an OD600 of 0.5-1.0, then induced by adding IPTG to a final concentration of 0.5 mM and L-arabinose to a final concentration of 2 mg/ml. After 2-3 h of incubation at 37 °C, cells were harvested by centrifugation, and the pellet was resuspended in lysis buffer (20 mM Tris-HCl pH 8.0, 300 mM NaCl, 20 mM imidazole, 4 M urea, 5% (v/v) glycerol, 0.01 mg/mL RNase A and 0.02 mg/mL DNase, plus one tablet of cOmplete, EDTA-free cocktail protease inhibitor cocktail (Roche)).
Cells were lysed using a One-Shot cell disrupter (Constant Systems Ltd., UK). The lysate was spun down and the soluble fraction containing LpxH was incubated at 4 °C overnight with 1.5 mL pre-equilibrated Ni-nitrilotriacetic acid agarose (Qiagen) slurry using the same buffer. The column was then washed in steps of 30 column volumes with lysis buffer (without RNase A, DNase and protease inhibitor) containing 3, 2, 1, 0.5 and 0 M of urea. The protein was then eluted with eight column volumes of 500 mM imidazole in the same buffer. Fractions containing the desired protein as judged by SDS gels were pooled and purified on a HiTrap Heparin HP affinity column (Cytiva) (loading buffer 20 mM Tris-HCl, pH 8.0 and 5% glycerol, 2 mM DTT; elution buffer 20 mM Tris-HCl, pH 8.0 and 5% glycerol, 1 M NaCl, 2 mM DTT) and further applied to a HiLoad 16/60 Superdex 200 preparative grade column (Amersham Biosciences) pre-equilibrated with 20 mM Tris-HCl, pH 8.0, 300 mM NaCl, 5% glycerol, 2 mM
DTT. […]
for EcLpxH2 and KpLpxH, respectively, calculated using the ProtParam tool(1) were analyzed by SDS PAGE and stored in 20 mM Tris-HCl (pH 8.0) containing 300 mM NaCl and 2 mM DTT at -80 […]

First: CC(=O)N1CCc2cc(S(=O)(=O)N3CCN(c4cccc(C(F)(F)F)c4)CC3)ccc21 [AZ1, reference compound]
Second: CN(c1ccccc1C(=O)Nc1ccc(S(=O)(=O)N2CCN(c3cccc(C(F)(F)F)c3)CC2)cc1)S(C)(=O)=O [JEDI-1444]
The IC50 of the first is 200-fold higher: 520 nM for the first, 2.6 nM for the second.

Compared with CN(c1ccc(CNCCN)cc1C(=O)Nc1ccc(S(=O)(=O)N2CCN(c3cc(Cl)cc(Cl)c3)CC2)cc1)S(C)(=O)=O [EBL-3025], Cc1cc(C#N)nc(N2CCN(S(=O)(=O)c3ccc(NC(=O)c4ccccc4N(C)S(C)(=O)=O)cc3)CC2)n1 [EBL-3339] is 2.3-fold lower in IC50: 3.4 nM for the first, 1.5 nM for the second. The second is the more potent here.

In the case of CN(c1ccccc1C(=O)Nc1ccc(S(=O)(=O)N2CCCCC2)cc1)S(C)(=O)=O [JEDI-852], the IC50 is reported as 1300 nM.
